A word on the IC50: it is the concentration that gives 50% inhibition.

From patent US20260146035A1, “FUSED BICYCLIC COMPOUNDS AND THEIR USE AS MER AND AXL INHIBITORS” (DONG-A ST CO., LTD., priority 2022, published 2026) come the findings set out here.

The target in one assay is T1, human MER (528-end) (Homo sapiens, UniProt Q12866).
T1 construct: human MER (528-end); purchased Camnabio, Japan
T1 sequence (Q12866 528-999 limits assumed): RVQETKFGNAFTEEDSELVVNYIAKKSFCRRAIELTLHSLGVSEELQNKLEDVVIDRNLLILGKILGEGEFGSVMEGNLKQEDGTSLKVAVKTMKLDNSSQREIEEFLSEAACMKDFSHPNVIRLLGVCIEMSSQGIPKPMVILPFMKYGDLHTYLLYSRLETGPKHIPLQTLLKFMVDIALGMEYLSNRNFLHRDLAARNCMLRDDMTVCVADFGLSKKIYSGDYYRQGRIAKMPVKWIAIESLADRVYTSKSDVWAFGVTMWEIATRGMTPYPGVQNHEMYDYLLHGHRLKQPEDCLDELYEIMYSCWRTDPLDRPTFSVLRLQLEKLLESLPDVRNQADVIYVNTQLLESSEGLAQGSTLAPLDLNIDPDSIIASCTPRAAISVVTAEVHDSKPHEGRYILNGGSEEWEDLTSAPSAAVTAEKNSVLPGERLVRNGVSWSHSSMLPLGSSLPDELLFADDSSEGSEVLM
In words: HTRF kinase activity biochemical assay, MER. As to conditions: 10 μM ATP, 30 minutes pre-incubation; read-out: HTRF MERTK IC50. A general note: Time-resolved FRET reads energy transfer from a long-lived donor to a nearby acceptor.

The next assay deals with T2, human TYRO3 (455-end) (Homo sapiens, UniProt Q06418).
T2 construct: TYRO3 (455-end); purchased SignalChem, Canada
T2 sequence (Q06418 455-890 limits assumed): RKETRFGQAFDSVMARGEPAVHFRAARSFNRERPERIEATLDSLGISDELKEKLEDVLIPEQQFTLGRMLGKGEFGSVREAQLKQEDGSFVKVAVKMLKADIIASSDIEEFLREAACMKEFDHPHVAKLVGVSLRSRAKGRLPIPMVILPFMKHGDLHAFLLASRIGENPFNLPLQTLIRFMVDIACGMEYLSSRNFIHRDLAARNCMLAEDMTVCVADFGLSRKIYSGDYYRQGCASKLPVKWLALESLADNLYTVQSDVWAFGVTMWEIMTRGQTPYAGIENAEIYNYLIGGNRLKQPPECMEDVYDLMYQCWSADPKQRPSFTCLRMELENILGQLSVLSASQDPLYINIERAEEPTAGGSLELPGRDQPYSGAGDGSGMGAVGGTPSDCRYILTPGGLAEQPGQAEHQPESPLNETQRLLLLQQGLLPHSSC
Put plainly: HTRF kinase activity biochemical assay, TYRO3. The settings on record: 10 μM ATP, 30 minutes pre-incubation; read-out: HTRF TYRO IC50.

Another assay deals with T3, human AXL (473-end) (Homo sapiens, UniProt P30530).
T3 construct: human AXL (473-end); purchased SignalChem, Canada
T3 sequence (P30530 473-894 limits assumed): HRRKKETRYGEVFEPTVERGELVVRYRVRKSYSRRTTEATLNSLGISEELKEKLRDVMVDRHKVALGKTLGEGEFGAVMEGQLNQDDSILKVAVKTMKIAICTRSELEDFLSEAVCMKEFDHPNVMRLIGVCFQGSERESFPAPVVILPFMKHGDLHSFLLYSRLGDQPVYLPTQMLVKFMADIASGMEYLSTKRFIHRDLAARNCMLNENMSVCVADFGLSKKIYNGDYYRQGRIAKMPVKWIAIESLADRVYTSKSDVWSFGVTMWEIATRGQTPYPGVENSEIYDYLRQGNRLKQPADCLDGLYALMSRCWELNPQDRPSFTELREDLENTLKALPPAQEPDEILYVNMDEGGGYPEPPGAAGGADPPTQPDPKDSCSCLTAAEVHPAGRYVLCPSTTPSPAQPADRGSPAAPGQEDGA
Put plainly: HTRF kinase activity biochemical assay, AXL. As to conditions: 10 μM ATP, 30 minutes pre-incubation.

SMILES strings stand for the structures.

Take `Cn1cc(-c2cnc(N)c(C(=O)N[C@H]3CCC[C@@H]3OCc3ccc(-c4ccc5c(c4)C(C)(C)CCC5N4CCNCC4)cc3)c2)cn1` (stereo partly drawn) [Example 146, 2-amino-N-[(1S,2S)-2-({4-[8,8-dimethyl-5-(piperazin-1-yl)-5,6,7,8-tetrahydronaphthalen-2-yl]phenyl}methoxy)cyclopentyl]-5-(1-methyl-1H-pyrazol-4-yl)pyridine-3-carboxamide]: the results for the IC50 on human MER (528-end), on human TYRO3 (455-end) and against human AXL (473-end) were below 10 nM, 10 to 100 nM and below 10 nM, respectively.

Turning to `Cn1cc(-c2cnc(N)c(C(=O)N[C@H]3CCC[C@@H]3OCc3ccc(-c4ccc5c(c4)CC(F)(F)[C@H]5N4CCN(CCO)CC4)cc3)c2)cn1` [Example 66, 2-amino-N-{(1S,2S)-2-[(4-{(1S)-2,2-difluoro-1-[4-(2-hydroxyethyl)piperazin-1-yl]-2,3-dihydro-1H-inden-5-yl}phenyl)methoxy]cyclopentyl}-5-(1-methyl-1H-pyrazol-4-yl)pyridine-3-carboxamide], the IC50 at human MER (528-end) is 10 to 100 nM; at human TYRO3 (455-end), above 1000 nM; against human AXL (473-end) it was 10 to 100 nM.

With `Nc1ncc(C(F)(F)F)cc1C(=O)N[C@H]1CCC[C@@H]1OCc1ccc(-c2ccc3c(ccn3C3CCN(CCO)CC3)c2)cc1` [Example 21, 2-amino-N-{(1S,2S)-2-[(4-{1-[1-(2-hydroxyethyl)piperidin-4-yl]-1H-indol-5-yl}phenyl)methoxy]cyclopentyl}-5-(trifluoromethyl)pyridine-3-carboxamide], the IC50 is below 10 nM at human MER (528-end), above 1000 nM at human TYRO3 (455-end) and 10 to 100 nM against human AXL (473-end).

On to `Nc1ncc(-c2cncs2)cc1C(=O)N[C@H]1CCC[C@@H]1OCc1ccc(-c2ccc3c(c2)CC[C@@H]3N2CCN(CCO)CC2)cc1` [Example 176, 2-amino-N-{(1S,2S)-2-[(4-{(1S)-1-[4-(2-hydroxyethyl)piperazin-1-yl]-2,3-dihydro-1H-inden-5-yl}phenyl)methoxy]cyclopentyl}-5-(1,3-thiazol-5-yl)pyridine-3-carboxamide], for which the figures for the IC50 on human MER (528-end), on human TYRO3 (455-end) and at human AXL (473-end) were below 10 nM, 10 to 100 nM and below 10 nM, respectively.

With `Nc1ncc(-c2ccc(F)nc2)cc1C(=O)N[C@H]1CCC[C@@H]1OCc1ccc(-c2ccc3c(c2)C2(CC2)CN(C2CCN(CCO)CC2)C3)cc1` [Example 75, 6-amino-6′-fluoro-N-{(1S,2S)-2-[(4-{2′-[1-(2-hydroxyethyl)piperidin-4-yl]-2′,3′-dihydro-1′H-spiro[cyclopropane-1,4′-isoquinolin]-6′-yl}phenyl)methoxy]cyclopentyl}[3,3′-bipyridine]-5-carboxamide], the IC50 at human MER (528-end), on human TYRO3 (455-end) and against human AXL (473-end) was above 1000 nM in each case.

Regarding `Nc1ncc(-c2ccc(F)nc2)cc1C(=O)N[C@H]1CCC[C@@H]1OCc1ccc(-c2ccc3c(c2)CC(F)(F)C3N2CCN(CCO)CC2)cc1` (stereo partly drawn) [Example 86, 6-amino-N-{(1S,2S)-2-[(4-{2,2-difluoro-1-[4-(2-hydroxyethyl)piperazin-1-yl]-2,3-dihydro-1H-inden-5-yl}phenyl)methoxy]cyclopentyl}-6′-fluoro[3,3′-bipyridine]-5-carboxamide], the values for the IC50 at human MER (528-end), on human TYRO3 (455-end) and on human AXL (473-end) were below 10 nM, 100 to 1000 nM and below 10 nM, respectively.

For `Cn1cc(-c2cnc(N)c(C(=O)N[C@H]3COC[C@@H]3OCc3ccc(-c4ccc5c(ccn5C)c4)cc3)c2)cn1` [Example 16, 2-amino-N-[(3S,4R)-4-{[4-(1-methyl-1H-indol-5-yl)phenyl]methoxy}oxolan-3-yl]-5-(1-methyl-1H-pyrazol-4-yl)pyridine-3-carboxamide], the IC50 on human MER (528-end) was 10 to 100 nM; at human TYRO3 (455-end), above 1000 nM; at human AXL (473-end) it was 10 to 100 nM.

With `Cn1cc(-c2cnc(N)c(C(=O)N[C@H]3CCC[C@@H]3OCc3ccc(-c4ccc5c(c4)CC[C@@H]5N4CCN(CC(O)CO)CC4)cc3)c2)cn1` (stereo partly drawn) [Example 98, 2-amino-N-{(1S,2S)-2-[(4-{(1S)-1-[4-(2,3-dihydroxypropyl)piperazin-1-yl]-2,3-dihydro-1H-inden-5-yl}phenyl)methoxy]cyclopentyl}-5-(1-methyl-1H-pyrazol-4-yl)pyridine-3-carboxamide], the IC50 on human MER (528-end) was below 10 nM; on human TYRO3 (455-end) it was 10 to 100 nM; at human AXL (473-end), below 10 nM.

`Cn1cc(-c2cnc(N)c(C(=O)N[C@H]3CCC[C@@H]3OCc3ccc(-c4ccc5c(c4)NC(=O)C5N4CCN(CCO)CC4)cc3)c2)cn1` (stereo partly drawn) [Example 69, 2-amino-N-{(1S,2S)-2-[(4-{3-[4-(2-hydroxyethyl)piperazin-1-yl]-2-oxo-2,3-dihydro-1H-indol-6-yl}phenyl)methoxy]cyclopentyl}-5-(1-methyl-1H-pyrazol-4-yl)pyridine-3-carboxamide]: the figures for the IC50 at human MER (528-end), at human TYRO3 (455-end) and against human AXL (473-end) were 100 to 1000 nM, above 1000 nM and 100 to 1000 nM, respectively.

`CC(C)n1ccc2cc(-c3ccc(CO[C@H]4CCC[C@@H]4NC(=O)c4cc(-c5cnn(C)c5)cnc4N)cc3)ccc21` [Example 60, 2-amino-5-(1-methyl-1H-pyrazol-4-yl)-N-[(1S,2S)-2-({4-[1-(propan-2-yl)-1H-indol-5-yl]phenyl}methoxy)cyclopentyl]pyridine-3-carboxamide]: the half-inhibitory concentration (IC50) is below 10 nM on human MER (528-end), above 1000 nM on human TYRO3 (455-end) and 10 to 100 nM against human AXL (473-end).

In the case of `CC1(C)CN(C2CCN(CCO)CC2)c2ccc(-c3ccc(CO[C@H]4CCC[C@@H]4NC(=O)c4nc(-c5ccc(F)nc5)cnc4N)cc3)cc21` [Example 41, 3-amino-6-(6-fluoropyridin-3-yl)-N-{(1S,2S)-2-[(4-{1-[1-(2-hydroxyethyl)piperidin-4-yl]-3,3-dimethyl-2,3-dihydro-1H-indol-5-yl}phenyl)methoxy]cyclopentyl}pyrazine-2-carboxamide], the IC50 was below 10 nM at human MER (528-end), 100 to 1000 nM at human TYRO3 (455-end) and 10 to 100 nM at human AXL (473-end).

Consider `Cn1cc(-c2cnc(N)c(C(=O)N[C@H]3CCC[C@@H]3OCc3ccc(-c4ccc5c(c4)OCCC5N4CCN(CCO)CC4)cc3)c2)cn1` (stereo partly drawn) [Example 121, 2-amino-N-{(1S,2S)-2-[(4-{4-[4-(2-hydroxyethyl)piperazin-1-yl]-3,4-dihydro-2H-1-benzopyran-7-yl}phenyl)methoxy]cyclopentyl}-5-(1-methyl-1H-pyrazol-4-yl)pyridine-3-carboxamide], for which the IC50 at human MER (528-end) was below 10 nM; on human TYRO3 (455-end), 10 to 100 nM; against human AXL (473-end), below 10 nM.

In the case of `COc1ccnc(N)c1C(=O)N[C@H]1CCC[C@@H]1OCc1ccc(-c2ccc3c(c2)CC[C@@H]3N2CCN(C)CC2)cc1` [Example 139, 2-amino-4-methoxy-N-[(1S,2S)-2-({4-[(1S)-1-(4-methylpiperazin-1-yl)-2,3-dihydro-1H-inden-5-yl]phenyl}methoxy)cyclopentyl]pyridine-3-carboxamide], the figures for the IC50 at human MER (528-end), on human TYRO3 (455-end) and at human AXL (473-end) were below 10 nM, 100 to 1000 nM and below 10 nM, respectively.

As to `CN(CCC(O)CO)C1CCc2cc(-c3ccc(CO[C@H]4CCC[C@@H]4NC(=O)c4cc(-c5cccnc5F)cnc4N)cc3)ccc21` (stereo partly drawn) [Example 127, 6-amino-N-{(1S,2S)-2-[(4-{1-[(3,4-dihydroxybutyl)(methyl)amino]-2,3-dihydro-1H-inden-5-yl}phenyl)methoxy]cyclopentyl}-2′-fluoro[3,3′-bipyridine]-5-carboxamide], the values for the IC50 on human MER (528-end), on human TYRO3 (455-end) and against human AXL (473-end) were 10 to 100 nM, above 1000 nM and 100 to 1000 nM, respectively.

With `C=C(C)c1cnc(N)c(C(=O)N[C@H]2CCC[C@@H]2OCc2ccc(-c3ccc4c(c3)C(C)(C)CN4C3CCN(CCO)CC3)cc2)c1` [Example 51, 2-amino-N-{(1S,2S)-2-[(4-{1-[1-(2-hydroxyethyl)piperidin-4-yl]-3,3-dimethyl-2,3-dihydro-1H-indol-5-yl}phenyl)methoxy]cyclopentyl}-5-(prop-1-en-2-yl)pyridine-3-carboxamide], the IC50 at human MER (528-end), at human TYRO3 (455-end) and on human AXL (473-end) was below 10 nM each time.
